From patent US6844183B2, “Antibiotics RK-1061 and process for preparing the same” (Daiichi Pharmaceutical Co., Ltd., priority 1996, dated 2005)

Tests used:
Escherichia coli AB 1157 = test: paper disk antibacterial test, Escherichia coli AB 1157; type: cell-based; settings: 20 μg/disc
Procedure: (§1) Methanol solution of each tested substance with specific concentration was sunk on a paper disk with diameter of 8 mm (Thick, Toyo-roshi) and dried, which was placed on a plate of each bacterium. After culture under the conditions suitable for each bacterium, the diameter of cell growth was measured, The results are shown in Table 4, 5 and 6.

[1] = system: Staphylococcus aureus IFO 12732; test: paper disk antibacterial test, Staphylococcus aureus IFO 12732; type: cell-based; settings: 20 μg/disc
Procedure: as §1

[2] = system: Bacillus subtilis IFO 3513; test: paper disk antibacterial test, Bacillus subtilis IFO 3513; type: cell-based; settings: 20 μg/disc; for the diameter of cell growth inhibition zone: ( ) represents partial inhibition
Procedure: as §1

[3] = system: Mycobacterium phlei IFO 3158; test: paper disk antibacterial test, Mycobacterium phlei; type: cell-based; settings: for The diameter of cell growth inhibition zone against M. Phlei: 2 μg/disc; for the diameter of cell growth inhibition zone: Mycobacterium phlei IFO 3158, 20 μg/disc
Procedure: as §1

[4] = system: Candida albicans IFO 5994; test: paper disk test, Candida albicans IFO 5994; type: cell-based; settings: 20 μg/disc
Procedure: as §1

peptidoglycan synthesis = test: inhibitory activity on peptidoglycan synthesis (crude enzyme, UDP-[3H]GlcNAc incorporation); type: biochemical, Escherichia coli; settings: 0.1 μg/ml
Procedure: Crude enzyme and substrate UDP-MurNAc-pentapeptide were prepared from Escherichia coli and Bacillus subtilis respectively according to a reference (J. Biol. Chem., 243, 3180 (1968)). Enzymatic reaction was carried out by mixing 5 μl of 1M Tris-HCl (pH 7.5), 10 μl of 0.1M MgCl2, 5 μl of 2 mM UDP-MurNAc-pentapeptide, 5 μl of enzyme solution(15 mg/ml protein concentration), 5 μl of sample, 5 μl of UDP-[U-^3H]GlcNAc (10 μCi/ml, 25.8 Ci/mmol., Du'pont) and 15 μl of water at 37° C. for 60 minutes and […]. After ice-cooling, it was trapped on a GF/C glass filter(2.4 cm, Whatman). And after adding scintillator thereto, radiation thereof was counted. Inhibitory % was calculated by comparing the count of control.

BALB/3T3 cells = test: cytotoxicity test (MTT); type: cell-based; settings: 3 days culture
Procedure: BALB/3T3 cells (100 μl) were inoculated into 10% FBS added DMEM medium (Gibco) in 96 well plate so as to be 1×10^5 cells/ml under 5% CO2 at 37° C., which was cultured overnight. The test substance dissolved in methanol was added thereto, which was cultured for more 3 days and further kept cultured for 4 hours after adding 10 μl of 2.5 mg/ml MTT reagent (Sigma). After removing supernatant, 100 μl of DMSO was added thereto and kept it overnight. The absorbance thereof at 540 nm was determined to detect viable cells.

Escherichia coli BE 1186 = test: paper disk antibacterial test, Escherichia coli BE 1186; type: cell-based; settings: 20 μg/disc, ( ) represents partial inhibition
Procedure: as §1

CCCCCC=CCC=CCCCC(CC(=O)OC1CN(C)C(C(OC2OC(CN)C(O)C2OS(=O)(=O)O)C2OC(n3ccc(=O)[nH]c3=O)C(O)C2O)C(=O)N(C)C1C(=O)O)OC(=O)CC(C)CC(=O)O (centres unmarked) [Liposidomycins A, reference compound]
the diameter of cell growth inhibition zone (Escherichia coli AB 1157): 0 mm
the diameter of cell growth inhibition zone [1]: 0 mm
the diameter of cell growth inhibition zone [2]: 0 mm
The diameter of cell growth inhibition zone against M. Phlei ([3]; Table 5): 0 mm
The diameter of cell growth inhibition zone against M. Phlei ([3]; Table 6): 0 mm
the diameter of cell growth inhibition zone [3]: 18.9 mm
the diameter of cell growth inhibition zone [4]: 0 mm
Inhibitory activity on peptidoglycan synthesis (peptidoglycan synthesis): 95%
Cytotoxicity against BALB/3T3 (IC50) (BALB/3T3 cells): >25 µg/mL

CCCCCC=CCC=CCCCCCC(CC(=O)OC1CN(C)C(C(OC2OC(CN)C(O)C2O)C2OC(n3ccc(=O)[nH]c3=O)C(O)C2O)C(=O)N(C)C1C(=O)O)OC(=O)CC(C)CC(=O)O (centres unmarked) [Liposidomycins K-(III)]
the diameter of cell growth inhibition zone (Escherichia coli AB 1157): 0 mm
the diameter of cell growth inhibition zone (Escherichia coli BE 1186): 13.5 mm
the diameter of cell growth inhibition zone [1]: 0 mm
the diameter of cell growth inhibition zone [2]: 13.0 mm
The diameter of cell growth inhibition zone against M. Phlei ([3]; Table 5): 12.27 mm
the diameter of cell growth inhibition zone [3]: 23.3 mm
the diameter of cell growth inhibition zone [4]: 0 mm

CCCCCC=CCC=CCCCCCC(CC(=O)OC1CN(C)C(C(OC2OC(CN)C(O)C2OS(=O)(=O)O)C2OC(n3ccc(=O)[nH]c3=O)C(O)C2O)C(=O)N(C)C1C(=O)O)OC(=O)CC(C)CC(=O)O (centres unmarked) [Liposidomycins K]
the diameter of cell growth inhibition zone (Escherichia coli AB 1157): 0 mm
the diameter of cell growth inhibition zone [1]: 0 mm
The diameter of cell growth inhibition zone against M. Phlei ([3]; Table 5): 13.15 mm
the diameter of cell growth inhibition zone [3]: 28.6 mm
the diameter of cell growth inhibition zone [4]: 0 mm

CCCCCCCCCCCCCC(CC(=O)OC1CN(C)C(C(OC2OC(CN)C(O)C2O)C2OC(n3ccc(=O)[nH]c3=O)C(O)C2O)C(=O)N(C)C1C(=O)O)OC(=O)CC(C)CC(=O)O (centres unmarked) [Liposidomycins M-(III)]
the diameter of cell growth inhibition zone (Escherichia coli AB 1157): 0 mm
the diameter of cell growth inhibition zone [1]: 0 mm
the diameter of cell growth inhibition zone [2]: 14.8 mm
The diameter of cell growth inhibition zone against M. Phlei ([3]; Table 5): 15.49 mm
the diameter of cell growth inhibition zone [3]: 25.7 mm
the diameter of cell growth inhibition zone [4]: 0 mm

Tunicamycin [TM]
Inhibitory activity on peptidoglycan synthesis (peptidoglycan synthesis): 10%
Cytotoxicity against BALB/3T3 (IC50) (BALB/3T3 cells): 0.05 µg/mL

CCCCCCCCC=CCC(CC(=O)OC1CN(C)C(C(OC2OC(CN)C(O)C2O)C2OC(n3ccc(=O)[nH]c3=O)C(O)C2O)C(=O)N(C)C1C(=O)O)OC(=O)CC(C)CC(=O)O (centres unmarked) [Liposidomycins Z-(III)]
the diameter of cell growth inhibition zone (Escherichia coli AB 1157): 0 mm
the diameter of cell growth inhibition zone (Escherichia coli BE 1186): 18.8 mm
the diameter of cell growth inhibition zone [1]: 0 mm
the diameter of cell growth inhibition zone [2]: 22.2 mm
The diameter of cell growth inhibition zone against M. Phlei ([3]; Table 5): 13.74 mm
the diameter of cell growth inhibition zone [3]: 26.3 mm
the diameter of cell growth inhibition zone [4]: 0 mm

CCCCCC=CCC=CCC(CC(=O)OC1CN(C)C(C(OC2OC(CN)C(O)C2O)C2OC(n3ccc(=O)[nH]c3=O)C(O)C2O)C(=O)N(C)C1C(=O)O)OC(=O)CC(C)CC(=O)O (centres unmarked) [Liposidomycins Y-(III)]
The diameter of cell growth inhibition zone against M. Phlei ([3]; Table 5): 0 mm

CCCCCCCCCCCC(CC(=O)OC1CN(C)C(C(OC2OC(CN)C(O)C2O)C2OC(n3ccc(=O)[nH]c3=O)C(O)C2O)C(=O)N(C)C1C(=O)O)OC(=O)CC(C)CC(=O)O (centres unmarked) [Liposidomycins C-(III)]
the diameter of cell growth inhibition zone (Escherichia coli AB 1157): 0 mm
the diameter of cell growth inhibition zone (Escherichia coli BE 1186): 14.3 mm
the diameter of cell growth inhibition zone [1]: 0 mm
the diameter of cell growth inhibition zone [2]: 17.8 mm
the diameter of cell growth inhibition zone, partial inhibition (value in brackets) [2]: (23.7) mm
The diameter of cell growth inhibition zone against M. Phlei ([3]; Table 5): 16.21 mm
the diameter of cell growth inhibition zone [3]: 30.3 mm
the diameter of cell growth inhibition zone [4]: 0 mm

CCCCCCCCCCCCCC(CC(=O)OC1CN(C)C(C(OC2OC(CN)C(O)C2OS(=O)(=O)O)C2OC(n3ccc(=O)[nH]c3=O)C(O)C2O)C(=O)N(C)C1C(=O)O)OC(=O)CC(C)CC(=O)O (centres unmarked) [Liposidomycins M]
the diameter of cell growth inhibition zone (Escherichia coli AB 1157): 0 mm
the diameter of cell growth inhibition zone (Escherichia coli BE 1186): 0 mm
the diameter of cell growth inhibition zone [1]: 0 mm
the diameter of cell growth inhibition zone [2]: 9.7 mm
the diameter of cell growth inhibition zone, partial inhibition (value in brackets) [2]: (13.0) mm
The diameter of cell growth inhibition zone against M. Phlei ([3]; Table 5): 16.86 mm
the diameter of cell growth inhibition zone [3]: 27.2 mm
the diameter of cell growth inhibition zone [4]: 0 mm

CCCCCCCCCCCC(CC(=O)OC1CN(C)C(C(OC2OC(CN)C(O)C2OS(=O)(=O)O)C2OC(n3ccc(=O)[nH]c3=O)C(O)C2O)C(=O)N(C)C1C(=O)O)OC(=O)CC(C)CC(=O)O (centres unmarked) [Liposidomycins C, reference compound]
the diameter of cell growth inhibition zone (Escherichia coli AB 1157): 0 mm
the diameter of cell growth inhibition zone (Escherichia coli BE 1186): 0 mm
the diameter of cell growth inhibition zone [1]: 0 mm
the diameter of cell growth inhibition zone [2]: 0 mm
The diameter of cell growth inhibition zone against M. Phlei ([3]; Table 5): 0 mm
the diameter of cell growth inhibition zone [3]: 22.1 mm
the diameter of cell growth inhibition zone [4]: 0 mm

CCCCCC=CCC=CCCCC(CC(=O)OC1CN(C)C(C(OC2OC(CN)C(O)C2O)C2OC(n3ccc(=O)[nH]c3=O)C(O)C2O)C(=O)N(C)C1C(=O)O)OC(=O)CC(C)CC(=O)O (centres unmarked) [Liposidomycins A-(III)]
the diameter of cell growth inhibition zone (Escherichia coli AB 1157): 0 mm
the diameter of cell growth inhibition zone (Escherichia coli BE 1186): 17.8 mm
the diameter of cell growth inhibition zone [1]: 0 mm
the diameter of cell growth inhibition zone [2]: 21.0 mm
The diameter of cell growth inhibition zone against M. Phlei ([3]; Table 5): 11.62 mm
The diameter of cell growth inhibition zone against M. Phlei ([3]; Table 6): 14.3^− mm
the diameter of cell growth inhibition zone [3]: 24.8 mm
the diameter of cell growth inhibition zone [4]: 0 mm
Inhibitory activity on peptidoglycan synthesis (peptidoglycan synthesis): 96%
Cytotoxicity against BALB/3T3 (IC50) (BALB/3T3 cells): >25 µg/mL

CCCCCCCCC=CCC(CC(=O)OC1CN(C)C(C(OC2OC(CN)C(O)C2OS(=O)(=O)O)C2OC(n3ccc(=O)[nH]c3=O)C(O)C2O)C(=O)N(C)C1C(=O)O)OC(=O)CC(C)CC(=O)O (centres unmarked) [Liposidomycins Z]
the diameter of cell growth inhibition zone (Escherichia coli AB 1157): 0 mm
the diameter of cell growth inhibition zone [1]: 0 mm
the diameter of cell growth inhibition zone [2]: 0 mm
The diameter of cell growth inhibition zone against M. Phlei ([3]; Table 5): 0 mm
the diameter of cell growth inhibition zone [4]: 0 mm

CCCCCCCCC=CCCCC(CC(=O)OC1CN(C)C(C(OC2OC(CN)C(O)C2O)C2OC(n3ccc(=O)[nH]c3=O)C(O)C2O)C(=O)N(C)C1C(=O)O)OC(=O)CC(C)CC(=O)O (centres unmarked) [Liposidomycins G-(III)]
The diameter of cell growth inhibition zone against M. Phlei ([3]; Table 5): 16.68 mm

CC(C)CCCCCCCCCCC(CC(=O)OC1CN(C)C(C(OC2OC(CN)C(O)C2OS(=O)(=O)O)C2OC(n3ccc(=O)[nH]c3=O)C(O)C2O)C(=O)N(C)C1C(=O)O)OC(=O)CC(C)CC(=O)O (centres unmarked) [Liposidomycins L]
The diameter of cell growth inhibition zone against M. Phlei ([3]; Table 5): 14.08 mm
